# Source: US7445921B2, “Transglycosylation method and protein having transglycosylation activity” (priority 2004, dated 2008)
# No end group written: not given here.
# Columns and labels:
# [1] = tested on: recombinant endo-α-GalNAc-ase; conditions: substance as sugar source 1.2 mM, TLC
# Method: The reaction system for measurement of transglycosylation activity was carried out by using the sugar chain donor Galβ1-3GalNAcα1-pNP at a final concentration of 2 mM, the acceptor 1-alkanol at a final concentration of 15% (v/v) and the purified enzyme (recombinant endo-α-GalNAc-ase) at a final concentration of 6.8 units/L in a 50 mM potassium phosphate buffer, pH 7.0.
# [2] = tested on: recombinant endo-α-GalNAc-ase; assay: Transglycosylation into polypeptide (HPLC, MALDI-TOF-MS); type: biochemical, Bifidobacterium longum JCM1217; conditions: donor Galβ1-3GalNAcα1-pNP, sodium phosphate buffer pH 6, 37° C., one hour, HPLC product peak
# Method: First, an enzymatic reaction of recombinant endo-α-GalNAc-ase purified in (7) was performed with Galβ1-3GalNAcα1-pNP as the sugar chain donor and peptide-T (see SEQ ID: 16), PAMP-12 (an amino acid sequence shown in SEQ ID: 17 with an amino group attached at C-end of the sequence) and bradykinin (see SEQ ID: 18) as the sugar chain acceptor.
# That is, 10 μl of Galβ1-3GalNAcα1-pNP, 6 μl solution of each polypeptide as the acceptor and 1.5 μl of NaP (sodium phosphate) buffer (500 mM, pH 6) were mixed. The sugar chain donor, Galβ1-3GalNAcα1-pNP was used at a concentration of 10 mM, and for the peptide solution, each of 50 mM peptide-T, 50 mM bradykinin, and 10 mM PAMP-12 was used. A solution obtained by mixing was warmed up to 37° C., subsequently 2.5 μl of endo-α-GalNAc-ase (1.55 unit/ml) was added thereto, which was then incubated in a water bath at 37° C. for one hour. Subsequently, the enzyme was inactivated by boiling for 3 to 5 minutes.
# Each reaction solution obtained in the aforementioned enzymatic reaction was applied to an HPLC analysis, and reaction products were analyzed and fractionated. […] UV (wavelength 214 nm) spectra were detected.
# Detected results of each reaction solution for peptide-T, PAMP-12 and bradykinin are shown in FIGS. 5A, 5B and 5C, respectively.
# The fractions fractionated by the aforementioned HPLC were analyzed by MALDI-TOF-MS. […]
# Target sequence in this assay (as listed by the source): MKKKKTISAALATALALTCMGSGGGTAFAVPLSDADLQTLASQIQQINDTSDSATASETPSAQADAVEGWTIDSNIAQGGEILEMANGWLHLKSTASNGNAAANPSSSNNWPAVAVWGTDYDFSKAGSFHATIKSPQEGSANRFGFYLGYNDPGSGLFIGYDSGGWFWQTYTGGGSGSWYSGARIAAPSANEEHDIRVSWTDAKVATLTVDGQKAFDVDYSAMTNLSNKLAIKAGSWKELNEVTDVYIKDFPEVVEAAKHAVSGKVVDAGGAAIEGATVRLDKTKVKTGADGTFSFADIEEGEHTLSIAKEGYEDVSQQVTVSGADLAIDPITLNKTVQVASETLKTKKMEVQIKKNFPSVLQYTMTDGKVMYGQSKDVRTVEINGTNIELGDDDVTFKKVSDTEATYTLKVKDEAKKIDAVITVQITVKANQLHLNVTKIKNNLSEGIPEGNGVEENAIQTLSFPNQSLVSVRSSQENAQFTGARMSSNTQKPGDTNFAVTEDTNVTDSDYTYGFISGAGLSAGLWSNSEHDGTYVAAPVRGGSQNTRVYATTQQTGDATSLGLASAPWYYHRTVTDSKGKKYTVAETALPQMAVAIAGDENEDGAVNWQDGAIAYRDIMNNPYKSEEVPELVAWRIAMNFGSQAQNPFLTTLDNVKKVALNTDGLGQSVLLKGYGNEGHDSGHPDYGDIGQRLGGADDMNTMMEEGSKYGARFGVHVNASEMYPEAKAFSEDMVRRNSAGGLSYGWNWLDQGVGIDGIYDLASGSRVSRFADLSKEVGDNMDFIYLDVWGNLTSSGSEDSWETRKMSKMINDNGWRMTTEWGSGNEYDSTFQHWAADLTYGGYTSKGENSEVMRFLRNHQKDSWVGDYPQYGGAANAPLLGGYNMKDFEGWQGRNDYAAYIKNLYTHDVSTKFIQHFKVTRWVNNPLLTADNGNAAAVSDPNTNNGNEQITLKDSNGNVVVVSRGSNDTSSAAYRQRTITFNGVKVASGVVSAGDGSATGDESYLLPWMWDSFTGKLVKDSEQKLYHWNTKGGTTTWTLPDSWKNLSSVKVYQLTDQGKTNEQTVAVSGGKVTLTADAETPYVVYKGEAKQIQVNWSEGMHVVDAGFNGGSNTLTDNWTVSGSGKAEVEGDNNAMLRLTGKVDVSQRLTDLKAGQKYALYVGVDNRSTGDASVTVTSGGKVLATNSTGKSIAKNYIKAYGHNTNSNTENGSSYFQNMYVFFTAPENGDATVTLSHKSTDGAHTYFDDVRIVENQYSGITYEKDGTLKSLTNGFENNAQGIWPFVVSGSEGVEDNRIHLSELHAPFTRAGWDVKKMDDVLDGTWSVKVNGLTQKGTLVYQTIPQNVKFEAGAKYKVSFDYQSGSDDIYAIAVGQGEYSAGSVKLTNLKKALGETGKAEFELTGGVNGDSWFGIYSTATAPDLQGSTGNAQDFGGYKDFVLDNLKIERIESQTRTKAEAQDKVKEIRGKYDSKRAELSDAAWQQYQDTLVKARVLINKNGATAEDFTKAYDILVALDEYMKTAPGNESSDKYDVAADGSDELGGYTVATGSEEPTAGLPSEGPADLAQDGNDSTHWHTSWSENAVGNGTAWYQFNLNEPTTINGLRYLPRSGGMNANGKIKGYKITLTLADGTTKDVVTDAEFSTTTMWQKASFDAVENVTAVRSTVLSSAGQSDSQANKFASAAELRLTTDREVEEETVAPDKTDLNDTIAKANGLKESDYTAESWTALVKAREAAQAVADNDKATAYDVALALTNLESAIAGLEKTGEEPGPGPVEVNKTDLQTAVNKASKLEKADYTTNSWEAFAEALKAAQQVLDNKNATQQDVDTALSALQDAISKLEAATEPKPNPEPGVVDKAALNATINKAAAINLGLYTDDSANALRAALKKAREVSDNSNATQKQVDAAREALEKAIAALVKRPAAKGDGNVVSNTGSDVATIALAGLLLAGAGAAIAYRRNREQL
Compound,Formation of product spot in reaction with methanol as acceptor (transglycosylation vs reverse hydrolysis) [1],Transfer of disaccharide (Gal-GalNAc) to the peptide acceptor [2]
"CC(=O)N[C@H]1C(O)O[C@H](CO)[C@H](O)[C@@H]1O[C@@H]1O[C@H](CO)[C@H](O)[C@H](O)[C@H]1O (stereo partly drawn) [Galβ1-3GalNAc, galactosyl β1→3N-acetylgalactosamine]",not formed,–
"CC(=O)N[C@H]1[C@@H](Oc2ccc([N+](=O)[O-])cc2)O[C@H](CO)[C@H](O)[C@@H]1O[C@@H]1O[C@H](CO)[C@H](O)[C@H](O)[C@H]1O [Galβ1-3GalNAcα1-pNP, galactosyl β1→3N-acetylgalactosaminyl α1-p-nitrophenol, reference compound]",formed,–
PAMP-12: amino acid sequence shown in SEQ ID: 17 with an amino group attached at C-end; sugar chain acceptor (FRKKWNKWALSR-NH2; listed as Homo sapiens),–,disaccharide (Gal-GalNAc) had been transferred
